# PubChem BioAssay AID1320 (NMMLSC, 2008)
# Calls of active or inactive are those of the source. The rule behind the calls is not given here.
# Target: Bcl-2-related protein A1 (Homo sapiens) (UniProt Q16548)
# Assay: Bfl-1/Bim complex disruptors – biochemical, multiplexed, bead-based flow cytometry, dose response (AID 1320); for percent span (inhibition): test concentration not given here
# Conditions: Bim peptide-Bfl-1 binding, fluorescence
# Sequence of Bcl-2-related protein A1 (Homo sapiens) (Q16548 whole entry, looked up): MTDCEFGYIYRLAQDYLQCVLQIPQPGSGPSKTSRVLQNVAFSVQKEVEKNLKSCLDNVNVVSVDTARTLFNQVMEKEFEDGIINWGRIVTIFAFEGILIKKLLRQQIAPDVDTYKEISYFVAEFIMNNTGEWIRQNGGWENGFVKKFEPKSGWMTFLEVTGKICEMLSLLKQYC
row,SMILES,EC50 [µM]
1,O=[N+]([O-])c1ccc(N/N=C/c2ccc(O)c(O)c2O)c(S(=O)(=O)N2CCOCC2)c1,4.48
2,O=C(N/N=C/c1ccc(O)c(O)c1O)/C(=C/c1ccc([N+](=O)[O-])cc1)NC(=O)c1ccccc1,5.22
3,Cc1c(NC2=C(Cl)C(=O)N(c3ccccc3Cl)C2=O)c(=O)n(-c2ccccc2)n1C,6.04

# Same assay, conditions: Bim peptide-Bfl-1 binding, fluorescence, hits give high values
row,SMILES,percent span (inhibition)
1,O=C(Nc1nnc(SCc2ccccn2)s1)C1CC(=O)N(c2ccccc2)C1 (stereo unspecified),inactive
2,COc1ccc(N2CCN(CCCNC(=O)CCCn3c(=O)[nH]c4ccsc4c3=O)CC2)cc1,inactive
3,O=C(CCc1ccccc1)N1CCN(c2ccccn2)CC1,inactive
4,CCOC(=O)c1ccc(NC(=O)CSCCC(=O)O)cc1,inactive
5,CC1CC2=C(NC(=S)NC2c2ccccc2F)/C(=C/c2ccccc2F)C1 (stereo unspecified),inactive
6,O=C1C(Cl)=C(Nc2ccccc2O)C(=O)N1c1ccccc1,inactive
7,COCCN=c1scc(-c2cccs2)n1/N=C/c1ccc(O)c(O)c1O,inactive
8,CN=C(NC1CCCCC1)c1ccc(Cl)cc1,inactive
9,CNC(=S)N/N=C/C1=CCC2CC1C2(C)C (stereo unspecified),inactive
10,Cc1csc(SCCn2c(N3CCN(c4ccccc4)CC3)nc3c2c(=O)[nH]c(=O)n3C)n1,inactive
11,Cc1ccc(-c2cc(C(=O)Nc3ccccc3C)c3ccccc3n2)o1,inactive
12,O=C1C(=O)c2ccc(-c3ccccc3)cc2-c2ccccc21,inactive
13,COc1cc(/C=N/NC(=O)CN(Cc2ccco2)S(=O)(=O)c2ccccc2)ccc1O,inactive
14,O=C1CCc2cc(S(=O)(=O)NCCCC(=O)N3CCN(Cc4ccc5c(c4)OCO5)CC3)ccc2N1,inactive
15,COc1ccc(NC(=O)c2sccc2SCc2cccc(C(F)(F)F)c2)cc1,inactive
16,Cc1ccc(S(=O)(=O)N(C)CC(=O)N2CCc3ccccc32)cc1,inactive
17,COC(=O)c1ccc(-n2nnnc2SCC(=O)Nc2cc(OC)ccc2OC)cc1,inactive
18,CC(NC(=O)Nc1ccccn1)N1C(=O)C2C3C=CC(C3)C2C1=O (stereo unspecified),inactive
19,O=C1c2ccccc2C(=O)N1CN(C(=O)COc1ccc(Cl)cc1Cl)c1cccc(F)c1,inactive
20,C#CCOCCOCCOCCNc1nc(N2CCN(C(=O)[C@H]([C@@H](C)CC)n3cc([C@@H](N)CC(C)C)nn3)CC2)nc(N2CCN(C(=O)[C@H](Cc3cc4ccccc4[nH]3)n3cc([C@@H](N)Cc4ccc(O)cc4)nn3)CC2)n1,inactive
21,O=C(Nc1cccc(Cl)c1)Nc1ccc(Cl)cn1,inactive
22,CCOC(=O)C1=C(CC)Nc2ccccc2N=C1NC(=O)c1ccc(S(=O)(=O)N2CCOCC2)cc1,inactive
23,Cn1cccc1CC(=O)N/N=C\c1ccccc1,inactive
24,CN(/N=C/c1cccnc1)C1=NS(=O)(=O)c2ccccc21,inactive

row,SMILES,percent span (inhibition)
1,Cc1ccc(C(=O)CCC(=O)Nc2ccc(Cl)c(S(=O)(=O)Nc3cccc(Cl)c3)c2)cc1,inactive
2,Cc1ccc(C)c(Oc2ncnc(N)c2[N+](=O)[O-])c1,inactive
3,O=c1[nH]c(SCc2nc3ccccc3c(=O)n2-c2ccccc2C(F)(F)F)nc2ccccc12,inactive
4,Cc1c(N2C(=O)c3ccc4c5c(ccc(c35)C2=O)CC4)c(=O)n(-c2ccccc2)n1C,inactive
5,Clc1ccc2c(N/N=C/c3ccc(Br)cc3)ccnc2c1,inactive
6,O=C(CC1NCCNC1=O)Nc1cccc([N+](=O)[O-])c1 (stereo unspecified),inactive
7,COc1ccc(OC)c(-n2c(=O)c3ccccc3c3ccccc3c2=O)c1,inactive
8,CCc1cccc(NC(=O)COc2ccccc2)c1,inactive
9,CCCCOc1ccc(Cc2c(Cl)nc(SC)nc2N2CCOCC2)cc1,inactive
10,CCOC(=O)c1cccc(Nc2ncnc3ccccc23)c1,inactive
11,O=c1c2c(n3nnnc3n1Cc1ccccc1)-c1ccccc1CC21CCCC1,inactive
12,CN(C)[C@@H]1C(=O)C(C(=O)NCN2CCCC2)=C(O)[C@@]2(O)C(=O)C3=C(O)c4c(O)cccc4[C@@](C)(O)C3CC12 (stereo partly specified),inactive
13,O=C(C[n+]1ccc(-c2nnc3n2CCC3)cc1)c1ccc(Cl)c(Cl)c1,inactive
14,CCCCOC(=O)c1nc(Cl)c(Cl)c(N)c1Cl,inactive
15,CC(C(=O)Nc1ccc([N+](=O)[O-])cc1)N1CCN(C/C=C/c2ccccc2)CC1 (stereo unspecified),inactive
16,Cc1cc(-c2csc(N)n2)c(C)n1C,inactive
17,Cc1cc(-c2nnc(CCC(=O)NC(C)c3cccc4ccccc34)o2)no1 (stereo unspecified),inactive
18,CC(C)C(=O)N1CCN(c2ccc([N+](=O)[O-])cc2Cl)CC1,inactive
19,CCn1c(SCC(=O)Nc2ccccc2-c2ccccc2)nnc1-c1ccoc1C,inactive
20,COc1ccc(CC(=O)Nc2ccc3nc(C)sc3c2)cc1OC,inactive
21,CC(C)CCN1CCN(Cc2cccc3cccnc23)CC1CCO (stereo unspecified),inactive
22,COc1ccc(C)cc1Nc1ccc(C(=O)O)cc1[N+](=O)[O-],inactive
23,Cc1cccc(C(=O)N2CCC(c3nc(-c4ccc(S(=O)(=O)N5CCOCC5)cc4)no3)CC2)c1,inactive
24,O=C(c1cc2ccccc2oc1=O)N(c1ccccc1)C1C=CS(=O)(=O)C1 (stereo unspecified),inactive

row,SMILES,percent span (inhibition)
1,COc1ccc(OC)c(NC(=O)CCCN2C(=S)NC(C)(C)CC2C)c1 (stereo unspecified),inactive
2,Cc1ccc(C(NC(=O)C(C)C)c2cc([N+](=O)[O-])c3cccnc3c2O)cc1 (stereo unspecified),inactive
3,O=C(CSc1nnc(-c2cccs2)n1Cc1ccco1)c1ccc2c(c1)OCO2,inactive
4,Cc1cc(N2CCN(C)CC2)nc2ccc(NC(=S)N3CCC4(CC3)OCCO4)cc12,inactive
5,O=C(O)c1cccc(NC2=C(Cl)C(=O)c3ccccc3C2=O)c1,inactive
6,COc1cc(/C=C2\S/C(=N/S(=O)(=O)c3ccccc3)NC2=O)c([N+](=O)[O-])cc1OC,inactive
7,COc1cc(/C=C2\SC(=S)NC2=O)ccc1OS(=O)(=O)c1ccccc1,inactive
8,C/C(=N\NC(=O)COc1ccc(C#N)cc1)c1ccccc1OC(F)F,inactive
9,CCOC(=O)C1(Cc2cccc(OC)c2)CCN(Cc2cccc(OC)c2OC)CC1,inactive
10,COc1ccc(CC(=O)Nc2ccc(-c3nc4cc(C)ccc4o3)c(O)c2)cc1OC,inactive
11,O=C1c2ccccc2-c2onc3ccc(NCc4ccco4)c1c23,inactive
12,O=C(CCl)Nc1cccc2ncccc12,inactive
13,O=C(Nc1ccccc1N1CCOCC1)c1cccs1,inactive
14,Cc1nnc2ccc(-c3cccc(NC(=O)c4ccco4)c3)nn12,inactive
15,C=CCN1C(=O)/C(=C/c2ccsc2)SC1=S,inactive
16,Cc1ccc2c(c1)c(C)c(C)n2CC(O)Cn1nc(C)c(Br)c1C (stereo unspecified),inactive
17,Cc1ccc2c(c1)C1CN(C)CCC1N2C(=O)Nc1cccc(Cl)c1 (stereo unspecified),inactive
18,CCOc1cc(/C=C2/N=C(C)C(C(=O)OC)=C2O)ccc1O,inactive
19,O=C1NCCN1C(=O)N(c1ccccc1)c1ccccc1,inactive
20,Cc1cc(C)nc(/N=c2/ssnc2Cl)c1,inactive
21,COc1ccc(OC)c(NC(=O)COC(=O)c2cc3c(s2)CCC3)c1,inactive
22,COc1ccc(CCNC(=O)c2cc(-c3ccccn3)nc3c(Cl)cccc23)cc1OC,inactive
23,COc1ccc(CC(=O)Nc2ccccc2Oc2ccccc2)cc1,inactive
24,COCCn1nnnc1CN(Cc1ccco1)Cc1cc2cc3c(cc2[nH]c1=O)OCO3,inactive

row,SMILES,percent span (inhibition)
1,COc1ccc(NC(=O)COc2ncnc3ccccc23)cc1S(=O)(=O)N1CCOCC1,inactive
2,CCSc1ncc(Cl)c(C(=O)Nc2sc3c(c2C(=O)NCc2cccnc2)CCCC3)n1,inactive
3,C(=C\c1ccccc1)/CSc1nnc(-c2ccccn2)n1Cc1ccco1,inactive
4,CCCn1c(N2CCN(C)CC2)nc2c1c(=O)[nH]c(=O)n2C,inactive
5,CCCCC(C(=O)OCC)C(N)Cc1ccc(F)cc1 (stereo unspecified),inactive
6,O=C(N/N=C/c1ccncc1)c1cccc(NC(=O)c2ccccc2Cl)c1,inactive
7,CCOc1ccc(CNc2ccc(N3CCCC3)cc2)cc1,inactive
8,O=S1(=O)N=C(N(CCO)/N=C/c2ccccc2)c2ccccc21,inactive
9,CN(C)/C=C/C(=O)c1ccc(C(F)(F)F)cc1F,inactive
10,Cc1ccnc(NS(=O)(=O)c2ccc(NC(=O)c3c(-c4ccccc4Cl)noc3C)cc2)n1,inactive
11,Fc1ccccc1-n1cc(-c2ccccc2)[nH]c1=S,inactive
12,Nc1ccc(Nc2nc(-c3ccncc3)cs2)cc1,inactive
13,COc1cc(/C=N/Nc2nn3cnnc3c3ccccc23)ccc1O,inactive
14,Cc1ccc(C)n1-c1cccc(C(=O)O)c1,inactive
15,COC(=O)c1ccc(C)c(NC(=O)CCNC(=O)c2ccc([N+](=O)[O-])cc2)c1,inactive
16,CCN1CCN(c2cc(C)c3cc(NC(=S)N4CCCCC4)ccc3n2)CC1,inactive
17,CCOc1cc(/C=N/NC(N)=O)ccc1OCC(=O)Nc1ccc(C)c(C)c1,inactive
18,Cc1ccc(CC(=O)OCCNC(=O)c2cccnc2)cc1,inactive
19,CSc1nnc2ccc(-c3cccs3)nn12,inactive
20,CCCn1c(C)cc(-c2csc(N)n2)c1C,inactive
21,c1ccc2c(N3CCOCC3)nc(N3CCOCC3)nc2c1,inactive
